Here are results for four compounds from patent CN101862374A, “莲子心及其提取物的新用途” (Individual, priority 2010, dated 2010).

Assay [1] concerns type II 5α-reductase [II型5α-还原酶]. As to the kind of experiment: Spectrophotometric (NADPH, 340 nm) 5α-reductase inhibition. In kind it is biochemical. The conditions noted are these: for mean inhibition rate: NADPH consumption, 10 min, 37 °C, serial concentrations, average; for inhibition rate compared with finasteride: versus finasteride [非那甾胺].
In the next assay the test system is autoxidation [自氧化]. The following applies: cited from earlier work.
Assay [2] relates to oxidatively damaged erythrocytes [氧化损伤红细胞]. The conditions noted are these: cited from earlier work.
Assay [3] relates to type II 5α-reductase [II型5α-还原酶]. As to the kind of experiment: DHT kit assay of 5α-reductase inhibition. In kind it is biochemical. The following applies: 37 °C, 30 min.
For assay [4], the system named is rat myocardium with ischemia-reperfusion injury [大鼠缺血再灌注损伤心肌]. The following applies: cited from earlier work.
Assay [5] has as its system experimental hyperlipidemic rats [实验性高脂血症大鼠]. The following applies: rat; cited from earlier work.
Assay [6] has as its system prostate smooth muscle α1-AR [前列腺平滑肌α1-AR]. As to the kind of experiment: Competitive inhibition of 125IBE binding to α1-AR of prostate smooth muscle membranes. The arrangement: species or system rat. The conditions noted are these: high dose.
In assay [7] the test system is rat cerebral ischemia-reperfusion [大鼠脑缺血再灌注]. The conditions noted are these: cited from earlier work.
The test system of assay [8] is platelets of hyperlipidemia patients and healthy persons [高脂血症患者和健康人血小板]. The following applies: in vitro, blood, several inducers; cited from earlier work.
The test system of assay [9] is hyperlipidemia model rats [高血脂症模型大鼠]. The following applies: rat; cited from earlier work.

`CC(C)(C)NC(=O)[C@H]1CC[C@H]2[C@@H]3CC[C@H]4NC(=O)C=C[C@]4(C)[C@H]3CC[C@]12C` [非那雄胺, reference compound] gave a mean inhibition rate in [1] of 57.14%.

As for `COc1ccc(C[C@@H]2c3cc(Oc4cc(C[C@@H]5c6cc(O)c(OC)cc6CCN5C)ccc4O)c(OC)cc3CCN2C)cc1` [异莲心碱], the inhibition of autoxidation entry with autoxidation [自氧化] is “能显著抑制自氧化”. For the same compound, in assay [1], the mean inhibition rate amounted to 65.48% and the “inhibition rate compared with finasteride” value was “强于非那甾胺”. Further, the “protection of oxidatively damaged erythrocytes” value in assay [2] is reported as “对氧化损伤红细胞有保护作用”. Further, the “inhibition of 5α-reductase activity by change of DHT concentration” value in assay [3] is reported as “有明显抑制作用”.

Take `COc1cc2c(cc1OC)[C@@H](Cc1ccc(O)c(Oc3cc4c(cc3OC)CCN(C)[C@@H]4Cc3ccc(O)cc3)c1)N(C)CC2` [莲心碱]: in assay [4], the “area of myocardial infarction” value was “可减少心肌梗死的面积”, the “damage of myocardial cells” value is “减轻心肌细胞的损伤” and the “protection of ischemia-reperfusion injured myocardium” value was “有保护作用”. In addition, in assay [1], the mean inhibition rate was 71.43% and the “inhibition rate compared with finasteride” value is reported as “强于非那甾胺”. In assay [1] (by NADPH determination), the “inhibition of 5α-reductase activity (in words)” value is “有明显抑制作用”. In [5], the atherosclerosis index entry is given as “显著降低”, the “serum low-density lipoprotein cholesterol” value is “显著降低”, the serum total cholesterol entry is recorded as “显著降低” and the serum triglycerides result is reported as “显著降低”. The “inhibition of 5α-reductase activity by change of DHT concentration” value in [3] was “有明显抑制作用”. For the same compound, the “inhibition of prostate smooth muscle α1-AR” value in [6] is recorded as “能抑制前列腺平滑肌α1-AR”. Further, in [7], the “C-Fos protein expression after cerebral ischemia-reperfusion” value is “抑制脑缺血再灌注后NOS和C-Fos蛋白的表达”, the “NOS expression after cerebral ischemia-reperfusion” value is on record as “抑制脑缺血再灌注后NOS和C-Fos蛋白的表达” and the “extent of infarct lesion” value is reported as “可显著减少大鼠梗死病灶范围”.

With `COc1ccc(C[C@@H]2c3cc(Oc4cc(C[C@@H]5c6cc(OC)c(OC)cc6CCN5C)ccc4O)c(OC)cc3CCN2C)cc1` [甲基莲心碱], the “inhibition of platelet aggregation” value in [8] is given as “可明显抑制多种诱聚剂诱导的高脂血症患者和健康人血小板聚集”. For the same compound, in assay [9], the “antioxidant action of the organism” value was “增强机体抗氧化作用”, the “degree of lipid peroxidation” value is recorded as “减轻脂质过氧化的程度” and the “effect on blood lipids” value is “具有显著的抑制作用”. Also, in assay [1], the mean inhibition rate turned out to be 68.22% and the “inhibition rate compared with finasteride” value is recorded as “强于非那甾胺”. For the same compound, the “inhibition of 5α-reductase activity by change of DHT concentration” value in assay [3] is “有明显抑制作用”. For the same compound, the “inhibition of prostate smooth muscle α1-AR” value in assay [6] is on record as “能抑制前列腺平滑肌α1-AR”.
